Experimental data taken from the NIST ThermoML archive (doi:10.1016/j.tca.2015.09.008).
“And” between values parts separate entries of the source, which are not always exact repeats. Equal entries are not always repeated. Numbers after ± are expanded uncertainties.

Settings: Crystal, Calculated from knudsen effusion weight loss

[I][La]([I])[I] [lanthanum triiodide]
vapor or sublimation pressure (827 K): 4.7e-07 ± 3.5e-07 kPa | vapor or sublimation pressure (845 K): 1.1e-06 ± 6e-07 kPa | vapor or sublimation pressure (862 K): 2.5e-06 ± 1.2e-06 kPa | vapor or sublimation pressure (869 K): 3.5e-06 ± 1.5e-06 kPa | vapor or sublimation pressure (875 K): 4.7e-06 ± 3.5e-06 kPa | vapor or sublimation pressure (884 K): 7.1e-06 ± 3.9e-06 kPa | vapor or sublimation pressure (905 K): 1.7e-05 ± 7e-06 kPa | vapor or sublimation pressure (910 K): 2.2e-05 ± 7e-06 kPa and 8.9e-06 ± 6.2e-06 kPa | vapor or sublimation pressure (921 K): 1.6e-05 ± 1.7e-05 kPa and 3.4e-05 ± 1.7e-05 kPa | vapor or sublimation pressure (937 K): 6.5e-05 ± 2.8e-05 kPa and 4e-05 ± 2.7e-05 kPa | vapor or sublimation pressure (943 K): 8.1e-05 ± 3.4e-05 kPa and 5.4e-05 ± 3.3e-05 kPa | vapor or sublimation pressure (953 K): 0.00012 ± 6.2e-05 kPa and 9.1e-05 ± 6.3e-05 kPa | vapor or sublimation pressure (962 K): 0.00017 ± 6.7e-05 kPa and 0.00014 ± 6.6e-05 kPa | vapor or sublimation pressure (978 K): 0.00031 ± 9.3e-05 kPa and 0.00033 ± 0.00011 kPa
